Key:
Assay type in all cases: functional
HepG2 = test: Growth inhibition of human HepG2 cells after 3 days by MTT assay; settings: time 3 day; for GI50: Homo sapiens, HepG2, 72 h
Huh-7 = test: Growth inhibition of human Huh-7 cells after 3 days by MTT assay; settings: time 3 day; for GI50: Homo sapiens, Huh-7, 72 h
PLC-PRF-5 = test: Growth inhibition of human PLC-PRF-5 cells after 3 days by MTT assay; settings: time 3 day
Hep 3B2 = test: Growth inhibition of human Hep3B cells after 3 days by MTT assay; settings: time 3 day

Cc1nc(Nc2ncc(C(=O)Nc3c(C)cccc3Cl)s2)cc(N2CCN(CCO)CC2)n1 [DASATINIB ANHYDROUS]
GI50 (HepG2): > 50000 nM | GI80 (HepG2): >50 µM | GI50 (Huh-7): 1970 nM | GI80 (Huh-7): 7.135 µM

O=C(Cc1ccc(-c2ccc(OCCN3CCOCC3)cc2)cn1)NCc1ccccc1 [TIRBANIBULIN]
GI50 (HepG2): 60 nM | GI80 (HepG2): 3.658 µM | GI50 (PLC-PRF-5; Homo sapiens, PLC-PRF-5, 72 h): 13 nM | GI80 (PLC-PRF-5): 24 nM | GI50 (Hep 3B2; Homo sapiens, Hep3B, 72 h): 26 nM | GI80 (Hep 3B2): 88 nM | GI50 (Huh-7): 9 nM | GI80 (Huh-7): 0.023 µM
